For series [1], the system named is Mouse bone marrow dendritic cells. Put plainly: Type-I IFN production by bone marrow dendritic cells, bioassay using L929 ISRE reporter cells. In kind it is cell-based. To be noted: overnight incubation of 1.2×10^5 DCs; CpG 1 μg/ml, c-GMP 10 μg/ml, c-di-GMP 10 μg/ml. The protocol:
(§1) Mouse bone marrow dendritic cells were cultured with granulocyte-macrophage colony-stimulating factor (GM-CSF) and harvested at day 7 of culture. 1.2×10^5 cells were exposed during overnight incubation to the following immunopotentiators: CpG 1668 1 μg/ml, c-GMP 10 μg/ml, c-di-GMP 10 μg/ml. Next, supernatant was carefully harvested and IL12 or type-I IFN production was determined. For IL12 an ELISA method was used according to the manufacturer's instructions (BD Biosciences). Type-I IFN was determined by a standard bioassay using L929 ISRE reporter cells.
(§2) Kaplan Meier survival curves were analyzed using a log rank test. Cytokine data was analyzed using ANOVA with a post-hoc Bonferroni test.
FIG. 2. Synergistic type I IFN production by DCs upon combined treatment with c-di-GMP and CpG. Mouse bone marrow dendritic cells were cultured with GM-CSF and harvested at day 7 of culture. 1.2×10^5 cells were exposed during overnight incubation to the indicated immmunopotentiators or combinations of immunopotentiators: CpG 1 μg/ml, c-GMP 10 μg/ml, c-di-GMP 10 μg/ml. Next, supernatant was harvested and type I IFN production was determined by a standard bioassay using L929 ISRE cells. Results are shown as means with sem, *=p<0.001 vs. all other bars. Similar results were obtained in three independent experiments.

Another series concerns human colon cancer cell. The note with it: in vitro; cited from earlier work.
The subject of the next series is B16F10 melanoma cells. Put plainly: Cryo ablation of established B16F10 tumors plus peri-tumoral immunopotentiator, re-challenge after 40 days, Kaplan-Meier survival. In kind it is in vivo, C57BL/6n mice. The note with it: cryo ablation combined with immunopotentiator; for survival rate after 60 days: 30 μg p.t. within 30 min. after ablation, re-challenge with 15*10^3 B16F10 cells s.c. 40 days after ablation; for protection from tumor outgrowth (re-challenge, Kaplan-Meier): re-challenge 40 days later, result in words. How it is done:
C57BL/6n mice (6-8 weeks old) were purchased from Charles River Wiga (Sulzfeld, Germany) and maintained under specific pathogen-free barrier conditions at the Central Animal Laboratory (Nijmegen, The Netherlands). Drinking water and standard laboratory food pellets were provided ad libitum and mice were allowed to settle for at least 1 week before random assignment into specific treatment groups. The experiments were performed according to the guidelines for animal care of the Nijmegen Animal Experiments Committee.
The murine melanoma cell line B16F10 (ATCC) was cultured in complete medium (MEM, 5% fetal bovine serum (Greiner Bio-one), 100 U/ml penicillin G sodium and 100 μg/ml streptomycin (Pen/Strep), MEM sodium pyruvate (1 mM), NaHCO3, MEM vitamins, MEM non-essential amino acids (all from Gibco), 20 μM β-mercaptoethanol (β-ME)).
B16F10 melanoma cells were suspended in a mixture of PBS and Matrigel (2:1), and 0.5*10^6 cells in a total volume of 50 μl were injected s.c. at the right femur. When tumor diameters measured between 6-8 mm (generally at day 9-10) they were randomly assigned to treatment groups. Cryo ablation (Cryo) was performed under isoflurane/O2/N2O anesthesia using a liquid nitrogen cryo ablation system (CS76, Frigitronics, Shelton, Conn.) of which the tip is cooled by a continuous flow of circulating liquid nitrogen. During 2 treatment cycles of freezing and thawing the tumor was macroscopically frozen, while leaving surrounding healthy tissue intact. To monitor the induction of long-lasting tumor protection, mice were re-challenged with 15*10^3 B16F10 cells 40 days after cryo ablation. Re-challenges were injected in 100 μl PBS s.c. on the right flank. Mice were sacrificed when tumor volume exceeded 1000 mm^3 or when tumors brake through the skin barrier.
CpG 1668 (‘5-[…]-3’) with total phosphorothioate-modified backbone was purchased from Sigma Genosys (Haverhill, UK). C-di-GMP was synthesized as described by Spehr V, Warrass R, Höcherl K, Ilg T., in Appl. Biochem. Biotechnol. 2011 Oct;165(3-4):761-75. CpG and/or C-di-GMP were peri-tumorally injected in PBS (p.t., 30 μg divided over 2 injections of 20 μl lining the ablated tumor). All injections were done within 30 min. after ablation.
as §2
FIG. 1. Anti-tumor memory response following ablation combined with C-di-GMP and CpG. Established B16F10 tumors growing subcutaneously on the right femur were treated with cryo ablation alone, or combined with the indicated immunopotentiators Immunopotentiators ([…]) were injected in 40 μl PBS in the peri-tumoral area following the ablation. […]

For series [2], the system named is Mouse bone marrow dendritic cells. Put plainly: IL12 production by bone marrow dendritic cells, ELISA. In kind it is cell-based. To be noted: overnight incubation of 1.2×10^5 DCs; CpG 1 μg/ml, c-GMP 10 μg/ml, c-di-GMP 10 μg/ml. How it is done: as §1, §2
FIG. 3. Synergistic IL12 production by DCs upon combined treatment with c-di-GMP and CpG. Mouse bone marrow dendritic cells were cultured with GM-CSF and harvested at day 7 of culture. 1.2×10^5 cells were exposed during overnight incubation to the indicated immunopotentiators: CpG 1 μg/ml, c-GMP 10 μg/ml, c-di-GMP 10 μg/ml. Next, supernatant was harvested and IL12 production was determined by standard ELISA methods. Results are shown as means with sem, *=p<0.001. Similar results were obtained in three independent experiments.

Regarding `Nc1nc2c(ncn2C2OC3COP(=O)(O)OC4C(COP(=O)(O)OC3C2O)OC(n2cnc3c(=O)[nH]c(N)nc32)C4O)c(=O)[nH]1` (centres unmarked) [c-di-GMP, 3′,5′-cyclic diguanylic acid], the “type I IFN production” value in series [1] is given as less than 50 U/ml. Also, in the series on human colon cancer cell, the “effect on basal and GF-stimulated cancer cell proliferation” value is “inhibitory effect”. Also, in the series on B16F10 melanoma cells, the “survival rate after 60 days” value is “approx. 50%” and the “protection from tumor outgrowth (re-challenge, Kaplan-Meier)” value is reported as “increased protection from tumor outgrowth”. Also, the “IL12 production (in words)” value in series [2] was “do not produce IL12”.
Consider “5-TCCATGACGTTCCTGATGCT-3 (DNA, all phosphorothioate, methylation of C not given here) [CpG 1668, CpG ODN 20-mer, TLR9 agonist, purchased from Sigma Genosys]”, for which the “type I IFN production (in words)” value in series [1] is recorded as “no IFN or only modest amounts of IFN”. Also, in the series with B16F10 melanoma cells, the “survival rate after 60 days” value was “approx. 50%” and the “protection from tumor outgrowth (re-challenge, Kaplan-Meier)” value is given as “increased protection from tumor outgrowth”. In series [2], the “IL12 production (in words)” value is “modest level of IL12 production”.
For `Nc1nc2c(ncn2[C@@H]2O[C@@H]3COP(=O)(O)O[C@H]3[C@H]2O)c(=O)[nH]1` [c-GMP], the “type I IFN production (in words)” value in series [1] is reported as “no IFN or only modest amounts of IFN”. Moreover, the “IL12 production (in words)” value in series [2] is given as “do not produce IL12”.

The values are drawn from patent US20160136197A1, “Pharmaceutical Compositions Comprising a GPG Oligodeoxynucleotide and Cyclic Di-GMP” (INTERVET INTERNATIONAL B.V., priority 2013, published 2016).
